The record followed here is patent US20090156577A1, “7-AMINO ALKYLIDENYL-HETEROCYCLIC QUINOLONES AND NAPHTHYRIDONES” (priority 2004, published 2009).

The experiment concerns pathogenic bacteria. Nature of the experiment: MIC by microdilution broth method (NCCLS M7-A4), in vitro antibacterial activity. The experiment is classed as cell-based. The method, boiled down:
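MIC read after 35 °C incubation for 16–20 h relative to drug-free growth wells. Cation-adjusted Mueller-Hinton broth with two-fold compound dilutions, organisms at roughly 5×10^4 CFU/well final. Method follows NCCLS document M7-A4.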

The mark [1] stands for this setting: Staphylococcus aureus, Organism A: Staphylococcus aureus OC4172, read-out: MIC.
Where [2] appears, read: Streptococcus pneumoniae, ATCC49619, Organism E: Streptococcus pneumoniae ATCC 49619, read-out: MIC.
[3] abbreviates: Streptococcus pneumoniae, Organism C: fluoroquinolone-resistant clinical isolate of Streptococcus pneumoniae (QRDR amino acid substitutions).
The mark [4] stands for this setting: Streptococcus pneumoniae, Organism D: fluoroquinolone-resistant clinical isolate of Streptococcus pneumoniae (QRDR amino acid substitutions).
Setting [5] is: Streptococcus pneumoniae, Organism B: fluoroquinolone-resistant clinical isolate of Streptococcus pneumoniae (QRDR amino acid substitutions).

In brackets after ≈: the same amount, converted by molar mass. Read-outs that look alike come from different tables or passages of the source.

Turning to `NC/C=C1\CCCN(c2c(F)cc3c(=O)c(C(=O)O)cn(C4CC4)c3c2OC(F)F)C1` [Compound 397, (E)-7-[3-(2-Amino-ethylidene)-piperidin-1-yl]-1-cyclopropyl-8-difluoromethoxy-6-fluoro-4-oxo-1,4-dihydro-quinoline-3-carboxylic acid], the MIC is 0.06 µg/mL (≈ 0.137 µM) under setting [1], 0.5 µg/mL (≈ 1.14 µM) under setting [2], 8 µg/mL (≈ 18.3 µM) under setting [3] and 2 µg/mL (≈ 4.57 µM) under setting [4].
In the case of `C[C@H]1COc2c(N3CCC/C(=C(\F)CN)C3)c(F)cc3c(=O)c(C(=O)O)cn1c23` [Compound 398, (E)-9-[3-(2-Amino-1-fluoro-ethylidene)-piperidin-1-yl]-8-fluoro-(3S)-3-methyl-6-oxo-2,3-dihydro-6H-1-oxa-3a-aza-phenalene-5-carboxylic acid], the MIC by setting is: under setting [1], ≤ 0.015 µg/mL; under setting [2], 0.03 µg/mL (≈ 0.074 µM); under setting [5], 0.25 µg/mL (≈ 0.617 µM); under setting [3], 0.5 µg/mL (≈ 1.23 µM); under setting [4], 1 µg/mL (≈ 2.47 µM).
`C[C@H]1COc2c(N3CCC/C(=C(/F)CN)C3)c(F)cc3c(=O)c(C(=O)O)cn1c23` [Compound 399, (Z)-9-[3-(2-Amino-1-fluoro-ethylidene)-piperidin-1-yl]-8-fluoro-(3S)-3-methyl-6-oxo-2,3-dihydro-6H-1-oxa-3a-aza-phenalene-5-carboxylic acid]: the MIC was 0.5 µg/mL (≈ 1.23 µM) under setting [1]; 2 µg/mL (≈ 4.93 µM) under setting [2]; 4 µg/mL (≈ 9.87 µM) under setting [5]; > 16 µg/mL under setting [3]; > 16 µg/mL under setting [4].
In the case of `C[C@H]1COc2c(N3CCC/C(=C(\Cl)CN)C3)c(F)cc3c(=O)c(C(=O)O)cn1c23` [Compound 400, (E)-9-[3-(2-Amino-1-chloro-ethylidene)-piperidin-1-yl]-8-fluoro-(3S)-3-methyl-6-oxo-2,3-dihydro-6H-1-oxa-3a-aza-phenalene-5-carboxylic acid], the MIC runs as follows: under setting [1], ≤ 0.015 µg/mL; under setting [2], 0.06 µg/mL (≈ 0.142 µM); under setting [5], 0.25 µg/mL (≈ 0.593 µM); under setting [3], 0.5 µg/mL (≈ 1.19 µM); under setting [4], 0.5 µg/mL (≈ 1.19 µM).
For `C[C@H]1COc2c(N3CCC/C(=C\CN)C3)c(F)cc3c(=O)c(C(=O)O)cn1c23` [Compound 401, (E)-9-[3-(2-Amino-ethylidene)-piperidin-1-yl]-8-fluoro-(3S)-3-methyl-6-oxo-2,3-dihydro-6H-1-oxa-3a-aza-phenalene-5-carboxylic acid], the MIC runs as follows: under setting [1], 1 µg/mL (≈ 2.58 µM); under setting [2], 8 µg/mL (≈ 20.6 µM); under setting [3], > 16 µg/mL; under setting [4], > 16 µg/mL.
For the molecule `C[C@H]1COc2c(N3CCC/C(=C/CN)C3)c(F)cc3c(=O)c(C(=O)O)cn1c23` [Compound 402, (Z)-9-[3-(2-Amino-ethylidene)-piperidin-1-yl]-8-fluoro-(3S)-3-methyl-6-oxo-2,3-dihydro-6H-1-oxa-3a-aza-phenalene-5-carboxylic acid], the MIC by setting is: under setting [1], 0.25 µg/mL (≈ 0.645 µM); under setting [2], 2 µg/mL (≈ 5.16 µM); under setting [5], 16 µg/mL (≈ 41.3 µM); under setting [3], > 16 µg/mL; under setting [4], > 16 µg/mL.
With `C/C(CN)=C1\CCCN(c2c(F)cc3c(=O)c(C(=O)O)cn4c3c2OC[C@@H]4C)C1` [Compound 404, (Z)-9-[3-(2-Amino-1-methyl-ethylidene)-piperidin-1-yl]-8-fluoro-(3S)-3-methyl-6-oxo-2,3-dihydro-6H-1-oxa-3a-aza-phenalene-5-carboxylic acid], the MIC runs as follows: under setting [1], 0.12 µg/mL (≈ 0.299 µM); under setting [2], 0.5 µg/mL (≈ 1.25 µM); under setting [5], 4 µg/mL (≈ 9.96 µM); under setting [3], 16 µg/mL (≈ 39.9 µM); under setting [4], > 16 µg/mL.
The corresponding values for `COc1c(N2CCC/C(=C(\F)CN)C2)c(F)cc2c(=O)c(C(=O)O)cn([C@@H]3C[C@@H]3F)c12` [Compound 405, (E)-7-[3-(2-Amino-1-fluoro-ethylidene)-piperidin-1-yl]-6-fluoro-(1R,2S)-1-(2-fluoro-cyclopropyl)-8-methoxy-4-oxo-1,4-dihydro-quinoline-3-carboxylic acid] are ≤ 0.015 µg/mL, ≤ 0.25 µg/mL, ≤ 0.12 µg/mL, 0.25 µg/mL (≈ 0.572 µM) and 0.25 µg/mL (≈ 0.572 µM).
`COc1c(N2CCC/C(=C(/F)CN)C2)c(F)cc2c(=O)c(C(=O)O)cn([C@@H]3C[C@@H]3F)c12` [Compound 406, (Z)-7-[3-(2-Amino-1-fluoro-ethylidene)-piperidin-1-yl]-6-fluoro-(1R,2S)-1-(2-fluoro-cyclopropyl)-8-methoxy-4-oxo-1,4-dihydro-quinoline-3-carboxylic acid]: the MIC is, setting by setting: under setting [1], 0.06 µg/mL (≈ 0.137 µM); under setting [2], 0.5 µg/mL (≈ 1.14 µM); under setting [5], 8 µg/mL (≈ 18.3 µM); under setting [3], 8 µg/mL (≈ 18.3 µM); under setting [4], 2 µg/mL (≈ 4.57 µM).
Take `COc1c(N2CCC/C(=C(\Cl)CN)C2)c(F)cc2c(=O)c(C(=O)O)cn([C@@H]3C[C@@H]3F)c12` [Compound 407, (E)-7-[3-(2-Amino-1-chloro-ethylidene)-piperidin-1-yl]-6-fluoro-(1R,2S)-1-(2-fluoro-cyclopropyl)-8-methoxy-4-oxo-1,4-dihydro-quinoline-3-carboxylic acid]: the MIC is ≤ 0.015 µg/mL under setting [1]; 0.03 µg/mL (≈ 0.0661 µM) under setting [2]; 0.03 µg/mL (≈ 0.0661 µM) under setting [5]; 0.25 µg/mL (≈ 0.551 µM) under setting [3]; 0.12 µg/mL (≈ 0.264 µM) under setting [4].
Turning to `COc1c(N2CCC/C(=C/CN)C2)c(F)cc2c(=O)c(C(=O)O)cn([C@@H]3C[C@@H]3F)c12` [Compound 408, (Z)-7-[3-(2-Amino-ethylidene)-piperidin-1-yl]-6-fluoro-(1R,2S)-1-(2-fluoro-cyclopropyl)-8-methoxy-4-oxo-1,4-dihydro-quinoline-3-carboxylic acid], the MIC by setting is: under setting [1], 0.03 µg/mL (≈ 0.0715 µM); under setting [2], 0.25 µg/mL (≈ 0.596 µM); under setting [5], 1 µg/mL (≈ 2.38 µM); under setting [3], 2 µg/mL (≈ 4.77 µM); under setting [4], 2 µg/mL (≈ 4.77 µM).
For the molecule `COc1c(N2CCC/C(=C\CN)C2)c(F)cc2c(=O)c(C(=O)O)cn([C@@H]3C[C@@H]3F)c12` [Compound 409, (E)-7-[3-(2-Amino-ethylidene)-piperidin-1-yl]-6-fluoro-(1R,2S)-1-(2-fluoro-cyclopropyl)-8-methoxy-4-oxo-1,4-dihydro-quinoline-3-carboxylic acid], the MIC by setting is: under setting [1], 0.12 µg/mL (≈ 0.286 µM); under setting [2], 1 µg/mL (≈ 2.38 µM); under setting [3], > 16 µg/mL; under setting [4], > 16 µg/mL.
As to `COc1c(N2CCC/C(=C(\C)CN)C2)c(F)cc2c(=O)c(C(=O)O)cn([C@@H]3C[C@@H]3F)c12` [Compound 410, (Z)-7-[3-(2-Amino-1-methyl-ethylidene)-piperidin-1-yl]-6-fluoro-(1R,2S)-1-(2-fluoro-cyclopropyl)-8-methoxy-4-oxo-1,4-dihydro-quinoline-3-carboxylic acid], the MIC is ≤ 0.015 µg/mL under setting [1], 0.06 µg/mL (≈ 0.138 µM) under setting [2], 0.5 µg/mL (≈ 1.15 µM) under setting [3] and 1 µg/mL (≈ 2.31 µM) under setting [4].
Consider `NC/C(F)=C1\CCCN(c2c(F)cc3c(=O)c(C(=O)O)cn(-c4nc(N)c(F)cc4F)c3c2Cl)C1` [Compound 411, (Z)-1-(6-Amino-3,5-difluoro-pyridin-2-yl)-7-[3-(2-amino-1-fluoro-ethylidene)-piperidin-1-yl]-8-chloro-6-fluoro-4-oxo-1,4-dihydro-quinoline-3-carboxylic acid], for which the MIC by setting is: under setting [1], 0.06 µg/mL (≈ 0.117 µM); under setting [2], 1 µg/mL (≈ 1.95 µM); under setting [5], > 16 µg/mL; under setting [3], > 16 µg/mL; under setting [4], 16 µg/mL (≈ 31.3 µM).
With `NC/C(Cl)=C1/CCCN(c2c(F)cc3c(=O)c(C(=O)O)cn(-c4nc(N)c(F)cc4F)c3c2Cl)C1` [Compound 412, (E)-1-(6-Amino-3,5-difluoro-pyridin-2-yl)-7-[3-(2-amino-1-chloro-ethylidene)-piperidin-1-yl]8-chloro-6-fluoro-4-oxo-1,4-dihydro-quinoline-3-carboxylic acid], the minimal inhibitory concentration (MIC) by setting is: under setting [1], 0.12 µg/mL (≈ 0.227 µM); under setting [2], 1 µg/mL (≈ 1.89 µM); under setting [5], 16 µg/mL (≈ 30.3 µM); under setting [3], > 16 µg/mL; under setting [4], 8 µg/mL (≈ 15.1 µM).
For `NC/C=C1/CCCN(c2c(F)cc3c(=O)c(C(=O)O)cn(-c4nc(N)c(F)cc4F)c3c2Cl)C1` [Compound 413, (Z)-1-(6-Amino-3,5-difluoro-pyridin-2-yl)-7-[3-(2-amino-ethylidene)-piperidin-1-yl]8-chloro-6-fluoro-4-oxo-1,4-dihydro-quinoline-3-carboxylic acid], the minimal inhibitory concentration (MIC) under setting [1] came to 0.25 µg/mL (≈ 0.506 µM); the MIC under setting [2] was 2 µg/mL (≈ 4.05 µM); the MIC under setting [5] is 16 µg/mL (≈ 32.4 µM); the MIC under setting [3] is > 16 µg/mL; the MIC under setting [4] was > 16 µg/mL.
Take `NC/C=C1\CCCN(c2c(F)cc3c(=O)c(C(=O)O)cn(-c4nc(N)c(F)cc4F)c3c2Cl)C1` [Compound 414, (E)-1-(6-Amino-3,5-difluoro-pyridin-2-yl)-7-[3-(2-amino-ethylidene)-piperidin-1-yl]8-chloro-6-fluoro-4-oxo-1,4-dihydro-quinoline-3-carboxylic acid]: the minimum inhibitory concentration (MIC) reads like this: under setting [1], 0.25 µg/mL (≈ 0.506 µM); under setting [2], 2 µg/mL (≈ 4.05 µM); under setting [3], > 16 µg/mL; under setting [4], > 16 µg/mL.
For the molecule `Nc1nc(-n2cc(C(=O)O)c(=O)c3cc(F)c(N4CCC/C(=C(\F)CO)C4)c(Cl)c32)c(F)cc1F` [Compound 415, (E)-1-(6-Amino-3,5-difluoro-pyridin-2-yl)-8-chloro-6-fluoro-7-[3-(1-fluoro-2-hydroxy-ethylidene)-piperidin-1-yl]-4-oxo-1,4-dihydro-quinoline-3-carboxylic acid], the MIC is 0.12 µg/mL (≈ 0.234 µM) under setting [1], 4 µg/mL (≈ 7.8 µM) under setting [2], > 16 µg/mL under setting [3] and > 16 µg/mL under setting [4].
Turning to `Nc1nc(-n2cc(C(=O)O)c(=O)c3cc(F)c(N4CCC/C(=C(/Cl)CO)C4)c(Cl)c32)c(F)cc1F` [Compound 416, (Z)-1-(6-Amino-3,5-difluoro-pyridin-2-yl)-8-chloro-7-[3-(1-chloro-2-hydroxy-ethylidene)-piperidin-1-yl]-6-fluoro-4-oxo-1,4-dihydro-quinoline-3-carboxylic acid], the MIC by setting is: under setting [1], 0.06 µg/mL (≈ 0.113 µM); under setting [2], 1 µg/mL (≈ 1.89 µM); under setting [5], 16 µg/mL (≈ 30.2 µM); under setting [3], > 16 µg/mL; under setting [4], 16 µg/mL (≈ 30.2 µM).
